Calls of active or inactive are those of the source.
Legend:
[1] = blockers of CRF-binding protein–CRF-R2 complex – cell-based, uHTS hits, 384-well, dose response (AID 651639); assay type: functional, Homo sapiens; details: read-out: IC50_Mean
[2] = molecular target: T1, Corticotropin-releasing factor receptor 2/Corticotropin-releasing factor-binding protein (Homo sapiens, UniProt P24387+Q13324); assay: Dose Response confirmation of uHTS hits for small molecule antagonists of the CRF-binding protein and CRF-R2 receptor complex.; assay type: functional; details: read-out: IC50_Mean
T1 sequence (Q13324 whole entry): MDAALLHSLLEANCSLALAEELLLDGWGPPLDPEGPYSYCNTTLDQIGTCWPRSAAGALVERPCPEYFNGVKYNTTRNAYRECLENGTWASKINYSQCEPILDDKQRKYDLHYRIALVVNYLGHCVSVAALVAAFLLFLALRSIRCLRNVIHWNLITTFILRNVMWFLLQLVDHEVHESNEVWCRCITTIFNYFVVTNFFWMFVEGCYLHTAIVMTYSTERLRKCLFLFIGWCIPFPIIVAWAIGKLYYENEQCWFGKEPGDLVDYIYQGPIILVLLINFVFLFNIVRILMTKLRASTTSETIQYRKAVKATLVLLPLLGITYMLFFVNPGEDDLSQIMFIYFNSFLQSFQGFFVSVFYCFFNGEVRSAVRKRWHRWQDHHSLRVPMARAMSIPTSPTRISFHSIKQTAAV
T1 sequence (P24387 whole entry): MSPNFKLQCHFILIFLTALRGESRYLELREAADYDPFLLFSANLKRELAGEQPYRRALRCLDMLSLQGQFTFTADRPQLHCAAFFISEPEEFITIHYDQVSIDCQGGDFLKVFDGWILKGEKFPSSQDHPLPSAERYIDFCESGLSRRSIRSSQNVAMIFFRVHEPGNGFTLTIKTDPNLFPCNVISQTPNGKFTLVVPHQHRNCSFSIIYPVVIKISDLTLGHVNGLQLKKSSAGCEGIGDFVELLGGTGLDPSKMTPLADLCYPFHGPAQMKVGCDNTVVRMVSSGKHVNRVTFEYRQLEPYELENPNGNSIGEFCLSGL

[3] = molecular target: T1, Corticotropin-releasing factor receptor 2/Corticotropin-releasing factor-binding protein; assay: activators of CRF receptor 2 with binding protein – uHTS hits, confirmation (AID 602473); assay type: functional; details: read-out: EC50_Mean
[4] = molecular target: T2, High affinity choline transporter 1 (Homo sapiens, UniProt Q9GZV3); assay: human choline transporter blockers, potency – cell-based, 10-point CRC, membrane potential dye, dose response (AID 588401); assay type: functional;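 note: membrane potential dye fluorescence of choline-evoked depolarization via CHT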
T2 sequence (Q9GZV3 whole entry): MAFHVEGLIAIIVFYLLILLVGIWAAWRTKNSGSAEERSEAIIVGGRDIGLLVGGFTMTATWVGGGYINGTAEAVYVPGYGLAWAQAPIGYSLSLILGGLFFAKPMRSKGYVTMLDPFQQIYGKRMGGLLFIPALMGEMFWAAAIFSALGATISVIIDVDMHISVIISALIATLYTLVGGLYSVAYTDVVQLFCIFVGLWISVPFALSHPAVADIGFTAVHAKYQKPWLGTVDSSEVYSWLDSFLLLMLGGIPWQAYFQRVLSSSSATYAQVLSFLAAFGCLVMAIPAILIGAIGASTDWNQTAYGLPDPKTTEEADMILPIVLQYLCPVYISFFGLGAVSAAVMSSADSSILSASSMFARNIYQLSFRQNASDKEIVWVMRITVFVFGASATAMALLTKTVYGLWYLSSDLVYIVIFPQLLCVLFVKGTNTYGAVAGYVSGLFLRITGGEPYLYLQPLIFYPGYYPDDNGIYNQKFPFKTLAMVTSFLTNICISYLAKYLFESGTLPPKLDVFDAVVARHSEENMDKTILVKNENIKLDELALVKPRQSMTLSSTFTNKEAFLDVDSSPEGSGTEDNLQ

[5] = molecular target: T2, High affinity choline transporter 1; assay: human choline transporter blockers, potency – cell-based, 5-point CRC, membrane potential dye, dose response (AID 504840); assay type: functional
Fatty acid synthase [6] = molecular target: T3, Fatty acid synthase (Homo sapiens, UniProt P49327); assay: inhibition of human FAS-TE enzyme activity – biochemical, endpoint fluorescence intensity, uHTS hits, dose response (AID 624327); assay type: functional;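 note: fluorescence from hydrolysis of an O-methyl fluorescein acyl ester substrate by the enzyme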
Fatty acid synthase [7] = molecular target: T3, Fatty acid synthase; assay: inhibition of human FAS-TE enzyme activity – biochemical, kinetic fluorescence intensity, dose response (AID 624326); assay type: functional;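 note: rate of fluorescence rise from hydrolysis of a fluorogenic O-methyl fluorescein ester substrate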
[8] = DRD fibroblast viability loss – cell-based, non-viral oncogenic, luminescence, dose response (AID 1934); assay type: functional; details: Homo sapiens
[9] = Fluorescence-based cell-based high throughput dose response assay for inhibitors of the interaction of nucleotide-binding oligomerization domain containing 2 (NOD2) and the receptor-interacting serine-threonine kinase 2 (RIPK2).; assay type: functional; details: Homo sapiens
BJ [10] = assay: BJ-TERT-LT-ST fibroblast viability loss – cell-based, RAS-independent, luminescence, dose response (AID 1935); assay type: functional; details: Homo sapiens;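 note: BJ fibroblasts immortalized with TERT plus LT and ST oncogenes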
BJ [11] = assay: cells; assay type: functional, cell-based; details: Homo sapiens
BJ [12] = assay: BJ-TERT fibroblast viability loss – cell-based, RAS-independent, luminescence, dose response (AID 1933); assay type: functional; details: Homo sapiens
[13] = molecular target: T4, Methionyl-tRNA synthetase, putative (Trypanosoma brucei brucei, UniProt Q38C91); assay type: functional, Trypanosoma brucei brucei strain 927/4 GUTat10.1
T4 sequence (Q38C91 whole entry): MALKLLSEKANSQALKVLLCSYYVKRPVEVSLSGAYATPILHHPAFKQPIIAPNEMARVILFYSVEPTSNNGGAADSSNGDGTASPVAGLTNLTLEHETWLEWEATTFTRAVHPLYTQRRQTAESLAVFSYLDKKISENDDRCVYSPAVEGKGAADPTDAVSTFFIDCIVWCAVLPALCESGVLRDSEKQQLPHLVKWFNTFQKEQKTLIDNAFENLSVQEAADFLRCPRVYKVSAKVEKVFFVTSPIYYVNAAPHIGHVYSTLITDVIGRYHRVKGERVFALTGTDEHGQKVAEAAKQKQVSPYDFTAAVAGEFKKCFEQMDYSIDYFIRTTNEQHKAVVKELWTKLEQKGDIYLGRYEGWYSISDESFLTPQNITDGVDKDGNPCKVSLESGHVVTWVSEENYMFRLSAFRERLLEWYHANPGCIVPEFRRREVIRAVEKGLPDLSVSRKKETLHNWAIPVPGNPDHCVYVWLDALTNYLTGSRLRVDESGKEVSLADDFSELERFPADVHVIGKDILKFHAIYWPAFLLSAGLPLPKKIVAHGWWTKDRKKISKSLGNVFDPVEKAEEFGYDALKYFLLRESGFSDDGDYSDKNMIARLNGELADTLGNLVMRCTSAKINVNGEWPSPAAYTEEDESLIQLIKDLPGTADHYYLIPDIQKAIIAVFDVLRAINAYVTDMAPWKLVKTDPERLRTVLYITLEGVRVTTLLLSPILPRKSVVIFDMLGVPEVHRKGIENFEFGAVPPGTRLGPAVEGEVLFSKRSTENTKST

[14] = Counterscreen for inhibitors of Trypanosoma brucei methionyl tRNA synthetase (MetRS): Luminescence-based cell-based high throughput dose response assay to identify compounds that are cytotoxic to Jurkat human T lymphocyte cells.; assay type: functional
[15] = molecular target: T4, Methionyl-tRNA synthetase, putative; assay type: functional, Trypanosoma brucei brucei strain 927/4 GUTat10.1; remark: listed apart in the source
[16] = general mammalian cell viability loss – inhibitor set, cherry-pick, set 2, cytotoxicity control for miR-122 modulator project, dose response (AID 720697); assay type: functional, cell-based
[17] = molecular target: T5, Long-chain-fatty-acid--AMP ligase FadD28 (Mycobacterium tuberculosis, UniProt P9WQ59); assay: Fluorescence polarization aasay to screen for inhibitors that compete for the binding of FadD28 to a bisubstrate Measured in Biochemical System Using Plate Reader - 2147-01_Inhibitor_Dose_CherryPick_Activity.; assay type: functional, Mycobacterium tuberculosis H37Rv
T5 sequence (P9WQ59 whole entry): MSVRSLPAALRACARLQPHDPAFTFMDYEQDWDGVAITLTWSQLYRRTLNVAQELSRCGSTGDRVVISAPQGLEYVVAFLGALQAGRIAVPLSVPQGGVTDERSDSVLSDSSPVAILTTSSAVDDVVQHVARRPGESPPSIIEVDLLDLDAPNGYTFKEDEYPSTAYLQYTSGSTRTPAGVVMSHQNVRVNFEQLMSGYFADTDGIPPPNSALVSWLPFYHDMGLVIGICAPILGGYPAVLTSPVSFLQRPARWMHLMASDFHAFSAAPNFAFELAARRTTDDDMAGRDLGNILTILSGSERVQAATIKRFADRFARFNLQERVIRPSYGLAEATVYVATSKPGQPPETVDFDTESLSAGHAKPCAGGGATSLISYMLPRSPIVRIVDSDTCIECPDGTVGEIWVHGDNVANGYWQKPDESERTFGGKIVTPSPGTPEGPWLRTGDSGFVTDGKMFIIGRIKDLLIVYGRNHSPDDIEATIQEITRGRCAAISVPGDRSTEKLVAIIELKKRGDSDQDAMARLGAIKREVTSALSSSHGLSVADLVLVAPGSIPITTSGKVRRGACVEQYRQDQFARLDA

[18] = molecular target: T6, Nuclear receptor subfamily 0 group B member 1 (Homo sapiens, UniProt P51843); assay type: functional, cell-based;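 note: HEK293T cells transfected with SF-1 and DAX-1 plus StAR promoter luciferase reporter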
T6 sequence (P51843 whole entry): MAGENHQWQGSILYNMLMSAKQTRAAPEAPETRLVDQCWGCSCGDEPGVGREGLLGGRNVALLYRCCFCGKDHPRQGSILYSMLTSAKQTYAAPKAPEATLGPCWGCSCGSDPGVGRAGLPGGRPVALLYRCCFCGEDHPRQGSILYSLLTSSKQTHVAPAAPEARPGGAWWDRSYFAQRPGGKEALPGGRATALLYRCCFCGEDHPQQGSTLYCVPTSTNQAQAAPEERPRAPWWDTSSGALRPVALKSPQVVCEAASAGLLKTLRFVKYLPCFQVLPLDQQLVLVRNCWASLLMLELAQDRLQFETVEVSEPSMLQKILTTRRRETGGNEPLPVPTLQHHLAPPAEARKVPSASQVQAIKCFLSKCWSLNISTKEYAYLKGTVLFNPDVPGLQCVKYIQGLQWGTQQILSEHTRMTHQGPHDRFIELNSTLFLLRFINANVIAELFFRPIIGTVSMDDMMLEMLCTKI

cells = assay type: functional, cell-based
[19] = potency of ADAM10 substrate cleavage blockers – biochemical, QFRET, dose response (AID 743254);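 note: ADAM10 enzyme with the DM2 quenched FRET peptide as substrate; EDANS fluorescence gain as the protease cuts the substrate; inhibitor potency against ADAM10 proteolytic activity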
Genome polyprotein = Genome polyprotein (dengue virus type 2, UniProt P29990); assay: flavivirus cap methylation enzyme inhibition – biochemical, confirmation dose response, primary screen (AID 588689); assay type: functional
[20] = molecular target: Heat shock protein HSP 90-alpha (Homo sapiens, UniProt P07900); assay type: functional, organism-based

T3 sequence (P49327 whole entry): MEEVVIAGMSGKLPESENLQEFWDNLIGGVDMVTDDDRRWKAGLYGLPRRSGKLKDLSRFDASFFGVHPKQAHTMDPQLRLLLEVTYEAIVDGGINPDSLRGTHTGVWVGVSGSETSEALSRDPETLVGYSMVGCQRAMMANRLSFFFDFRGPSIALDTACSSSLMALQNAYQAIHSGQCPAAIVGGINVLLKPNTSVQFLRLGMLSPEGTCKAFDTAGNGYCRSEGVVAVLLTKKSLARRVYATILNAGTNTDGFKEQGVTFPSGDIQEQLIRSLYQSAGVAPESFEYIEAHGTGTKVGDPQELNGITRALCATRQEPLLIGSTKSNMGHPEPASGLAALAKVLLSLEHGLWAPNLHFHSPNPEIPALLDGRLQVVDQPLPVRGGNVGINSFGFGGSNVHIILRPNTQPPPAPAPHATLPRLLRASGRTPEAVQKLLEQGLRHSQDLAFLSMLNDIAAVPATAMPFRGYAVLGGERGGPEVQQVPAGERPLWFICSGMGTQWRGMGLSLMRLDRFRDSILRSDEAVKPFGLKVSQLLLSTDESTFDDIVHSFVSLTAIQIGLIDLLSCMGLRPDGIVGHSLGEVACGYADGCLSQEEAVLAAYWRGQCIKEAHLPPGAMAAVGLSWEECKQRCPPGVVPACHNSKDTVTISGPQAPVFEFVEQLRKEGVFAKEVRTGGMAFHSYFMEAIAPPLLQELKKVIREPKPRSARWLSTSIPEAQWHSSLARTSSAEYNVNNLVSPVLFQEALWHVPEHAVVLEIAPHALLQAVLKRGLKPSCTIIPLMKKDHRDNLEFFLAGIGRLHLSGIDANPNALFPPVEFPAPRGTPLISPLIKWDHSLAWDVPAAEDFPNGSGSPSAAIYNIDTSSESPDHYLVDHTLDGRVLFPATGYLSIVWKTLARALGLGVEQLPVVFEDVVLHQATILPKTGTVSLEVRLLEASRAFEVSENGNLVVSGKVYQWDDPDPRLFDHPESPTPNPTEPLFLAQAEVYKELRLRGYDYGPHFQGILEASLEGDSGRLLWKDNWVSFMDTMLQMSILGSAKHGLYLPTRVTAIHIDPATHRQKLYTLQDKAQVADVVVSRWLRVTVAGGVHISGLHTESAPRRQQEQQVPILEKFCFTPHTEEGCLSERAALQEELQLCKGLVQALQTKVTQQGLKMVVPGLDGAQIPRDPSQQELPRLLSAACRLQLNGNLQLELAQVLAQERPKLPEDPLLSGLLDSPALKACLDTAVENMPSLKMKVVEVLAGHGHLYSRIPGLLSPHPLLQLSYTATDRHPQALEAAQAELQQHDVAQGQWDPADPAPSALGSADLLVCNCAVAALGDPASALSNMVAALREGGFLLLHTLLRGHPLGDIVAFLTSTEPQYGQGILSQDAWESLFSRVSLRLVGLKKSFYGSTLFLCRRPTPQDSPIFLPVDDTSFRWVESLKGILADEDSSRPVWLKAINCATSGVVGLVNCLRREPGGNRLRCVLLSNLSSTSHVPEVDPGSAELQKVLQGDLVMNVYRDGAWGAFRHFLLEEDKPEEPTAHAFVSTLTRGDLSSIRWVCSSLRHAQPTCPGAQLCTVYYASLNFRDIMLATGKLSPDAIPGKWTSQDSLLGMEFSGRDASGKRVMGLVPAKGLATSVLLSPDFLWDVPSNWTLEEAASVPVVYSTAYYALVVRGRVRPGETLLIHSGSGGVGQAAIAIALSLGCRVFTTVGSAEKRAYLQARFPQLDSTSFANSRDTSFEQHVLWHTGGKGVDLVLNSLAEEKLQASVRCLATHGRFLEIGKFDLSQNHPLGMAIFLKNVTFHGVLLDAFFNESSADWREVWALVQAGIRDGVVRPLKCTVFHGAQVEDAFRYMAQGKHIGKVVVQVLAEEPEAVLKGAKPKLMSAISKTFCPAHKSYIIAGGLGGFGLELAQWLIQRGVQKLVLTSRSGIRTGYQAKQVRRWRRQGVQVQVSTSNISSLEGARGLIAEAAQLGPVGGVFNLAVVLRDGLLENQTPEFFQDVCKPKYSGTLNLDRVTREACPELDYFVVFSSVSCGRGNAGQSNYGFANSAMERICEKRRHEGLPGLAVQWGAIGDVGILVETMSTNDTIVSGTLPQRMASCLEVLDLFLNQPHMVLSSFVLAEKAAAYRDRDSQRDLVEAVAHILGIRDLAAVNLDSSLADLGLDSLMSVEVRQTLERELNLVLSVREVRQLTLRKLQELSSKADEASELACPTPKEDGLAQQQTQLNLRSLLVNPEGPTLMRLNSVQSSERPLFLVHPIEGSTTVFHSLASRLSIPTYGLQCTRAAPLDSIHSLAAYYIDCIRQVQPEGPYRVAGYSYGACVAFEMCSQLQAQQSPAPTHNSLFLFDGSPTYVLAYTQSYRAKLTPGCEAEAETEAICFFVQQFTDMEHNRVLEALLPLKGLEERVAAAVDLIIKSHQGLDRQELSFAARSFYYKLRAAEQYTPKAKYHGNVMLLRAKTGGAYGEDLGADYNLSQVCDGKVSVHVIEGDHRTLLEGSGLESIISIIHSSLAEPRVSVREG
Sequence of Genome polyprotein (P29990 2492-3391 limits assumed): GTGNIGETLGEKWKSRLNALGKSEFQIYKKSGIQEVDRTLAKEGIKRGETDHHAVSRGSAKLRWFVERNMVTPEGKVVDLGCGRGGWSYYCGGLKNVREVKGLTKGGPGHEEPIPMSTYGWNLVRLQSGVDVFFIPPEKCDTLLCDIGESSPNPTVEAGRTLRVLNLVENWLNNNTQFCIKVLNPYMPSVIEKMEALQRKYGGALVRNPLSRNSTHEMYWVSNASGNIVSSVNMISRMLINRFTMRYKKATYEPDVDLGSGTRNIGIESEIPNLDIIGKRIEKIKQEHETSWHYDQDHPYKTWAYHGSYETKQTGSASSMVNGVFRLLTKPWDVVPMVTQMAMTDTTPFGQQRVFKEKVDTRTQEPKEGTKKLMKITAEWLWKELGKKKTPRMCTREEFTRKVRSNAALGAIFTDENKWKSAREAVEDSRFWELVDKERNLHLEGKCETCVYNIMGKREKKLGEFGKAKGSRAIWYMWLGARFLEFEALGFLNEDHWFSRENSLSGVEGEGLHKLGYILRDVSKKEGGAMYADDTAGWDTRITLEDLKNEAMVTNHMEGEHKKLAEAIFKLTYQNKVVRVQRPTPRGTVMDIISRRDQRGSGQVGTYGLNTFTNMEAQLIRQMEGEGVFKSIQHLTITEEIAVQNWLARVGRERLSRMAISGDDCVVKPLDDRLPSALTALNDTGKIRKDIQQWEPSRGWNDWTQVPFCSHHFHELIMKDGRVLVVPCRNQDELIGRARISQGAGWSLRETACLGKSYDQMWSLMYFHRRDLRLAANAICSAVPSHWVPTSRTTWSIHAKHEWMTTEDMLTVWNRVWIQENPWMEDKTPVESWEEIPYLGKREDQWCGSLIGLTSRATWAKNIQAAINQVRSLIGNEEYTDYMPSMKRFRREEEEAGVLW

Compound: COc1ccc(-c2c(C)nn3c(N4CCCCCC4)cc(C)nc23)cc1OC
- IC50 [1]: > 20 µM (inactive)
- IC50 [2]: 21.4 µM (active)
- EC50 [3]: > 53 µM (inactive)

Compound: Cn1c(/C=C/N(Cc2ccccc2)c2ccccc2)c([N+](=O)[O-])c(=O)n(C)c1=O
- IC50 [4]: 3.12 µM (active)
- IC50 [5]: 2.98 µM (active)
- IC50 (Fatty acid synthase [6]): 18.8 µM (active)
- IC50 (Fatty acid synthase [7]): 16.3 µM (active)

Compound: CC1CCCCC1NC(=O)c1cccc(S(=O)(=O)N2CCN(C)CC2)c1 (configuration not stated)
- IC50 [4]: 4.22 µM (active)
- IC50 [5]: 4.37 µM (active)

Compound: C=CCOc1cccc(C(=O)/C=C2/C(=O)Nc3ccccc32)c1
- EC50 [8]: 9.43 µM (inconclusive)
- IC50 [9]: 5.51 µM (active)
- EC50 (BJ [10]): 7.99 µM (active)
- EC50 (BJ [11]): 31.5 µM (inconclusive)
- EC50 (BJ [12]): 5.47 µM (inconclusive)

Compound: O=C(CSc1ccc(-c2nc3ccccc3[nH]2)cn1)Nc1ccc(S(=O)(=O)NC2CC2)cc1
- IC50 [13]: 3.58 µM (active)
- IC50 [14]: 83.3 µM (inactive)
- IC50 [15]: 4.53 µM (active)

Compound: Cc1ccc(-n2c(S)nnc2Cc2ccccc2)cc1
- AC50 [16]: 3.74 µM (active)

Compound: O=C(NN1C(=O)/C(=C/c2ccc(O)cc2)SC1=S)c1cccc(O)c1
- AC50 [17]: 62 µM (active)
- IC50 [13]: 44.6 µM (inactive)
- IC50 [14]: 83.3 µM (inactive)
- IC50 [15]: 30.9 µM (inactive)

Compound: O=C(NN1C(=O)/C(=C/c2cccs2)SC1=S)c1ccncc1
- IC50 [4]: 7.13 µM (active)
- IC50 [5]: 7.57 µM (active)

Compound: Clc1ccc(OCc2cc(-c3ccccc3)no2)c(Cl)c1
- IC50 [18]: > 67.5 µM (inactive)
- IC50 (cells): > 67.5 µM (inactive)

Compound: FC(F)(F)c1cc(CCN2C(S)=NC[C@@H]2Cc2ccccc2)cc(C(F)(F)F)c1
- IC50 [19]: 11.8 µM (inactive)

Compound: Cc1cc(Cl)c2oc(C(=O)N(C)C3CCOC3)c(C)c2c1 (configuration not stated)
- IC50 [18]: > 67.5 µM (inactive)
- IC50 (cells): > 67.5 µM (inactive)

Compound: COC(=O)c1sccc1NC(=O)Nc1ccc(C)cc1
- IC50 [18]: > 67.6 µM (inactive)
- IC50 (cells): > 67.6 µM (inactive)

Compound: Cc1ccc(S(=O)(=O)Nc2ccc3ccccc3c2[N+](=O)[O-])cc1
- IC50 [1]: 14.9 µM (active)
- IC50 [2]: 18.7 µM (active)
- EC50 [3]: > 53 µM (inactive)
- IC50 (Genome polyprotein): 31.7 µM (active)
- AC50 [20]: 8.19 µM (active)

Compound: OCCN1CCN(c2ncnc3scc(-c4ccc(F)cc4)c23)CC1
- IC50 [4]: 7.51 µM (active)
- IC50 [5]: 6.59 µM (active)

Compound: COCC(=O)NC[C@@H]1[C@H](c2ccc(C3=CCCC3)cc2)[C@H](CO)N1C(=O)C1CC1
- AC50 [16]: 0.499 µM (active)

Compound: COc1cc(CCc2ccccc2)c(C(=O)O)c(O)c1CC=C(C)C [AMORFRUTIN A]
- IC50 [1]: 12.1 µM (active)
- IC50 [2]: 7.93 µM (active)
- EC50 [3]: 35.2 µM (active)
